pEC50: −log10 of the molar value.
Key:
Adenosine receptor A1 [1] = target: T1, Adenosine receptor A1 (Homo sapiens, UniProt P30542); assay: Agonist activity at human A1AR expressed in FlpIn-CHO cells assessed as inhibition of forskolin-stimulated cAMP accumulation preincubated for 10 mins followed by forskolin addition measured after 30 mins by Alphascreen assay; format: functional, cell-based
T1 sequence (P30542 whole entry): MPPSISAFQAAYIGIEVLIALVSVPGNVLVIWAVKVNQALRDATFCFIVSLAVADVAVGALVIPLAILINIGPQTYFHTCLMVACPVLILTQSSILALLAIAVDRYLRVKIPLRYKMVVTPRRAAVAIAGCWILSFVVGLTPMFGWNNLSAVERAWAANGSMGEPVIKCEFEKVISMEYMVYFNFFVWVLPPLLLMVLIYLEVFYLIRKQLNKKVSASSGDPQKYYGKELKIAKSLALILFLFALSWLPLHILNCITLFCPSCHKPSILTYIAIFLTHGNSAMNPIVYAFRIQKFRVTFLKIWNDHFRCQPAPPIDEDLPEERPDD

Adenosine receptor A1 [2] = target: T1, Adenosine receptor A1; assay: Agonist activity at human A1AR expressed in FlpIn-CHO cells assessed as intracellular calcium mobilization by Fluo-4 dye-based fluorescence assay; format: cell-based
Adenosine receptor A1 [3] = target: T1, Adenosine receptor A1; assay: Agonist activity at human A1AR expressed in FlpIn-CHO cells assessed as intracellular calcium mobilization by Fluo-4 dye-based fluorescence assay relative to control; format: cell-based
Adenosine receptor A1 [4] = target: T1, Adenosine receptor A1; assay: Agonist activity at human A1AR expressed in FlpIn-CHO cells assessed as intracellular calcium mobilization by measuring agonist transduction coefficient by Fluo-4 dye-based fluorescence assay; format: cell-based
Adenosine receptor A2a = Adenosine receptor A2a (Homo sapiens, UniProt P29274); assay: Agonist activity at human A2A-AR expressed in FlpIn-CHO cells assessed as inhibition of forskolin-stimulated cAMP accumulation preincubated for 40 mins followed by forskolin addition measured after 30 mins by Alphascreen assay
Adenosine receptor A2b = target: T2, Adenosine receptor A2b (Homo sapiens, UniProt P29275); assay: Agonist activity at human A2BAR expressed in FlpIn-CHO cells assessed as […] cAMP accumulation preincubated for 40 mins followed by forskolin addition measured after 30 mins by Alphascreen assay; format: functional, cell-based
T2 sequence (P29275 whole entry): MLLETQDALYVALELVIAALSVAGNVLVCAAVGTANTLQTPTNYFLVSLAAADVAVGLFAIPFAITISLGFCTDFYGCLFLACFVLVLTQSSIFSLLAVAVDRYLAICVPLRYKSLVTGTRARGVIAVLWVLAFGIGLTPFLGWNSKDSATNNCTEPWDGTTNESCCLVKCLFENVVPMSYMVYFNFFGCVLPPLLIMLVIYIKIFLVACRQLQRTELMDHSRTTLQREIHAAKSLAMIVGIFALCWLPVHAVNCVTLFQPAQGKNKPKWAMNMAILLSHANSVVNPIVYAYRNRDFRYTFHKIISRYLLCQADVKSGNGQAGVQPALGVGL

[5] = target: T3, Adenosine receptor A2b (Homo sapiens) (UniProt P29275); assay: Agonist activity at human A2BAR expressed in FlpIn-CHO cells assessed as […] cAMP accumulation preincubated for 40 mins followed by forskolin addition measured after 30 mins by Alphascreen assay relative to control; format: functional, cell-based
T3 sequence (whole entry): T2 sequence (P29275 whole entry)

Adenosine receptor A3 = target: T4, Adenosine receptor A3 (Homo sapiens, UniProt P0DMS8); assay: Agonist activity at human A3AR expressed in FlpIn-CHO cells assessed as inhibition of forskolin-stimulated cAMP accumulation preincubated for 10 mins followed by forskolin addition measured after 30 mins by Alphascreen assay
T4 sequence (P0DMS8 whole entry): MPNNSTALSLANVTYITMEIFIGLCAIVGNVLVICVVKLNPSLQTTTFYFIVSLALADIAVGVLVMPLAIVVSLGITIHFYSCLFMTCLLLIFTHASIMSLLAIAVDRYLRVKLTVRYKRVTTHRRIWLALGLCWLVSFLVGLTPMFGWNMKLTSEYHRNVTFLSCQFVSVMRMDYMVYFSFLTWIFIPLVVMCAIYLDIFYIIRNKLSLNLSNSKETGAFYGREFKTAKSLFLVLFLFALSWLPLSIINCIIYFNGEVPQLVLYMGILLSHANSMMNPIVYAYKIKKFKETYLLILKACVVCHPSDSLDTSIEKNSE

[6] = target: T5, Adenosine receptor A3 (Homo sapiens) (UniProt P0DMS8); assay: Agonist activity at human A3AR expressed in FlpIn-CHO cells assessed as inhibition of forskolin-stimulated cAMP accumulation preincubated for 10 mins followed by forskolin addition measured after 30 mins by Alphascreen assay relative to control; format: functional, cell-based
T5 sequence (whole entry): T4 sequence (P0DMS8 whole entry)

Adenosine receptor A2a, sequence (P29274 whole entry): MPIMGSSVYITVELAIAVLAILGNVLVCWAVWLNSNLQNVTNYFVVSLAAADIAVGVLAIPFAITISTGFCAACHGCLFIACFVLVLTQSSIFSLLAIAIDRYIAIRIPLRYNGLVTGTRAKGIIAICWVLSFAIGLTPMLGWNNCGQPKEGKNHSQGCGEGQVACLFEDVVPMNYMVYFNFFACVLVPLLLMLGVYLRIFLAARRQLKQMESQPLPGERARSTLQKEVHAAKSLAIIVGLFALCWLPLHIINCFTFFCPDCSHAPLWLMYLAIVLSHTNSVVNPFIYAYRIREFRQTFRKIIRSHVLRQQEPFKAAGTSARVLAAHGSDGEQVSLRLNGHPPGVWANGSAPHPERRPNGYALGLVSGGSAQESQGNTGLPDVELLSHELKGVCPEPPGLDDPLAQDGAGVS

Compound	pEC50 (Adenosine receptor A1 [1])	pEC50 (Adenosine receptor A1 [2])	Emax (Adenosine receptor A1 [3]) [%]	log(activity) (Adenosine receptor A1 [4])	pEC50 (Adenosine receptor A2a)	pEC50 (Adenosine receptor A2b)	Emax [5] [%]	pEC50 (Adenosine receptor A3)	Emax [6] [%]
O=C(NCCCCCCNc1ncnc2c1ncn2[C@@H]1O[C@H](CO)[C@@H](O)[C@H]1O)c1ccc(-c2scc(C(=O)c3ccccc3)c2-c2cccc(C(F)(F)F)c2)cc1	6.96	6.25	40	5.74	5.54	6.83	49	< 6.00	
O=C(NCCCCCCNc1ncnc2c1ncn2[C@@H]1O[C@H](CO)[C@@H](O)[C@H]1O)c1ccc(-c2sccc2-c2cccc(C(F)(F)F)c2)cc1	6.77	7.11	49	7.03	6.19	7.04	44	6.46	26
Nc1sc(-c2ccc(C(=O)NCCCCCCCNc3ncnc4c3ncn4[C@@H]3O[C@H](CO)[C@@H](O)[C@H]3O)cc2)c(-c2cccc(C(F)(F)F)c2)c1C(=O)c1ccccc1	7.64	6.70	28	5.58	5.31	6.33	38	6.48	56
Nc1ccc(-c2cccc(C(=O)NCCCCCCNc3ncnc4c3ncn4[C@@H]3O[C@H](CO)[C@@H](O)[C@H]3O)c2)s1		7.46	47	7.4	5.97	7.22	45	7.19	72
O=C(NCCCCCCNc1ncnc2c1ncn2[C@@H]1O[C@H](CO)[C@@H](O)[C@H]1O)c1cccc(-c2cc(C(=O)c3ccccc3)cs2)c1	6.86	7.06	39	6.91	6.36	6.80	27	6.39	74
Nc1sc(-c2ccc(C(=O)NCCCCCCNc3ncnc4c3ncn4[C@@H]3O[C@H](CO)[C@@H](O)[C@H]3O)cc2)cc1C(=O)c1ccccc1	7.38	7.53	49	7.43	6.45	6.65	40	6.35	85
CC(=O)Nc1sc(-c2ccc(C(=O)NCCCCCCNc3ncnc4c3ncn4[C@@H]3O[C@H](CO)[C@@H](O)[C@H]3O)cc2)c(-c2cccc(C(F)(F)F)c2)c1C(=O)c1ccccc1	6.86	6.05	20	5.02	5.63	6.21	44	6.35	60
O=C(NCCCCCCNc1ncnc2c1ncn2[C@@H]1O[C@H](CO)[C@@H](O)[C@H]1O)c1cccc(-c2cccs2)c1	6.63	7.45	49	7.38	5.88	7.75	42	6.08	107

Reference: ChEMBL document CHEMBL4043287, “A Structure-Activity Relationship Study of Bitopic N6-Substituted Adenosine Derivatives as Biased Adenosine A1 Receptor Agonists” (J Med Chem, 2018)
